The data set relates to CCRIS mutagenicity, Ames/micronucleus/aberration tests. The data set can be described thus: CCRIS mutagenicity studies.
Where [1] appears, read: Test System: AMES SALMONELLA TYPHIMURIUM, Strain/Indicator: TA100, Metabolic Activation: NONE, Method: PREINCUBATION
Where [2] appears, read: Test System: AMES SALMONELLA TYPHIMURIUM, Strain/Indicator: TA98, Metabolic Activation: NONE, Method: PREINCUBATION
[3] abbreviates: Test System: AMES SALMONELLA TYPHIMURIUM, Strain/Indicator: TA1535, Metabolic Activation: NONE, Method: PREINCUBATION
The mark [4] stands for this setting: Test System: AMES SALMONELLA TYPHIMURIUM, Strain/Indicator: TA1537, Metabolic Activation: NONE, Method: PREINCUBATION

This is an account of results in PubChem BioAssay AID1259407 (Chemical Carcinogenesis Research Information System (CCRIS), 2018).

Structures are written as SMILES. Active and inactive are the calls of the source. How the calls were made is not given here.

With `CC1CN(N=O)CC(C)O1` (centres undefined), the mutagenic call (Test System: AMES SALMONELLA TYPHIMURIUM, Strain/Indicator: TA100, Metabolic Activation: HAMSTER, LIVER, S-9, 3-METHYLCHOLANTHRENE, Method: PREINCUBATION) is “active; positive”; the mutagenic call (Test System: AMES SALMONELLA TYPHIMURIUM, Strain/Indicator: TA100, Metabolic Activation: HAMSTER, LIVER, S-9, PHENOBARBITAL, Method: PREINCUBATION) was “active; positive”; the mutagenic call (Test System: AMES SALMONELLA TYPHIMURIUM, Strain/Indicator: TA100, Metabolic Activation: HAMSTER, LIVER, S-9, Method: PREINCUBATION) is “active; positive”; the mutagenic call (Test System: AMES SALMONELLA TYPHIMURIUM, Strain/Indicator: TA100, Metabolic Activation: HUMAN, LIVER, S-9, Method: PREINCUBATION) was “inactive; negative”; the mutagenic call (Test System: AMES SALMONELLA TYPHIMURIUM, Strain/Indicator: TA100, Metabolic Activation: MONKEY, LIVER, S-9, Method: PREINCUBATION) is “active; positive”; the mutagenic call (Test System: AMES SALMONELLA TYPHIMURIUM, Strain/Indicator: TA100, Metabolic Activation: MOUSE, LIVER, S-9, 3-METHYLCHOLANTHRENE, Method: PREINCUBATION) was “active; positive”. For the same compound, the mutagenic call is “active; positive” (Test System: AMES SALMONELLA TYPHIMURIUM, Strain/Indicator: TA100, Metabolic Activation: MOUSE, LIVER, S-9, PHENOBARBITAL, Method: PREINCUBATION); “active; positive” (Test System: AMES SALMONELLA TYPHIMURIUM, Strain/Indicator: TA100, Metabolic Activation: MOUSE, LIVER, S-9, Method: PREINCUBATION); “inactive; negative” under setting [1]; “active; positive” (Test System: AMES SALMONELLA TYPHIMURIUM, Strain/Indicator: TA100, Metabolic Activation: RABBIT, LIVER, S-9, Method: PREINCUBATION); “inactive; negative” (Test System: AMES SALMONELLA TYPHIMURIUM, Strain/Indicator: TA100, Metabolic Activation: RAT, LIVER, CYTOSOL, PCB, Method: PREINCUBATION); “active; positive” (Test System: AMES SALMONELLA TYPHIMURIUM, Strain/Indicator: TA100, Metabolic Activation: RAT, LIVER, MICROSOMES AND CYTOSOL, PCB, Method: PREINCUBATION). The mutagenic call reads like this: (Test System: AMES SALMONELLA TYPHIMURIUM, Strain/Indicator: TA100, Metabolic Activation: RAT, LIVER, MICROSOMES AND G6PDH, PCB, Method: PREINCUBATION) “active; positive”; (Test System: AMES SALMONELLA TYPHIMURIUM, Strain/Indicator: TA100, Metabolic Activation: RAT, LIVER, MICROSOMES, PCB, Method: PREINCUBATION) “active; positive”; (Test System: AMES SALMONELLA TYPHIMURIUM, Strain/Indicator: TA100, Metabolic Activation: RAT, LIVER, S-9 (HEATED), PCB, Method: PREINCUBATION) “inactive; negative”; (Test System: AMES SALMONELLA TYPHIMURIUM, Strain/Indicator: TA100, Metabolic Activation: RAT, LIVER, S-9, 3-METHYLCHOLANTHRENE, Method: PREINCUBATION) “active; positive”; (Test System: AMES SALMONELLA TYPHIMURIUM, Strain/Indicator: TA100, Metabolic Activation: RAT, LIVER, S-9, PCB, Method: PREINCUBATION) “active; positive”; (Test System: AMES SALMONELLA TYPHIMURIUM, Strain/Indicator: TA100, Metabolic Activation: RAT, LIVER, S-9, PHENOBARBITAL, Method: PREINCUBATION) “active; positive”. Moreover, the mutagenic call was “active; positive” (Test System: AMES SALMONELLA TYPHIMURIUM, Strain/Indicator: TA100, Metabolic Activation: RAT, LIVER, S-9, Method: PREINCUBATION); “inactive; negative” (Test System: AMES SALMONELLA TYPHIMURIUM, Strain/Indicator: TA100, Metabolic Activation: RAT, LIVER, S-9 WITHOUT NADP+, PCB, Method: PREINCUBATION); “active; positive” (Test System: AMES SALMONELLA TYPHIMURIUM, Strain/Indicator: TA100, Method: PREINCUBATION).

As for `CC(=O)/C=C/CCC(=O)/C=C/C(=O)O[C@@H](CCC(=O)/C=C/C(=O)O)CC(C)=O`, the mutagenic call (Test System: CHINESE HAMSTER V-79, Strain/Indicator: V-79 (HPRT)/6-THIOGUANINE, Metabolic Activation: NONE) is “active; positive”.

In the case of `Cc1oc(=O)oc1COC(=O)[C@@H]1N2C(=O)[C@@H](NC(=O)[C@H](N)c3ccccc3)[C@H]2SC1(C)C`, the mutagenic call under setting [2] was “inactive; negative”; the mutagenic call (Test System: AMES SALMONELLA TYPHIMURIUM, Strain/Indicator: TA98, Metabolic Activation: RAT, LIVER, S-9, PHENOBARBITAL AND 5,6-BENZOFLAVONE, Method: PREINCUBATION) is “inactive; negative”; the mutagenic call under setting [1] was “inactive; negative”; the mutagenic call (Test System: AMES SALMONELLA TYPHIMURIUM, Strain/Indicator: TA100, Metabolic Activation: RAT, LIVER, S-9, PHENOBARBITAL AND 5,6-BENZOFLAVONE, Method: PREINCUBATION) was “inactive; negative”; the mutagenic call under setting [3] was “inactive; negative”; the mutagenic call (Test System: AMES SALMONELLA TYPHIMURIUM, Strain/Indicator: TA1535, Metabolic Activation: RAT, LIVER, S-9, PHENOBARBITAL AND 5,6-BENZOFLAVONE, Method: PREINCUBATION) was “inactive; negative”. Also, the mutagenic call is, setting by setting: under setting [4], “inactive; negative”; (Test System: AMES SALMONELLA TYPHIMURIUM, Strain/Indicator: TA1537, Metabolic Activation: RAT, LIVER, S-9, PHENOBARBITAL AND 5,6-BENZOFLAVONE, Method: PREINCUBATION) “inactive; negative”; (Test System: AMES SALMONELLA TYPHIMURIUM, Strain/Indicator: TA1538, Metabolic Activation: NONE, Method: PREINCUBATION) “inactive; negative”; (Test System: AMES SALMONELLA TYPHIMURIUM, Strain/Indicator: TA1538, Metabolic Activation: RAT, LIVER, S-9, PHENOBARBITAL AND 5,6-BENZOFLAVONE, Method: PREINCUBATION) “inactive; negative”; (Test System: E. COLI, Strain/Indicator: WP2 UVRA, Metabolic Activation: NONE, Method: PREINCUBATION) “inactive; negative”; (Test System: E. COLI, Strain/Indicator: WP2 UVRA, Metabolic Activation: RAT, LIVER, S-9, AROCLOR 1254, Method: PREINCUBATION) “inactive; negative”.

As for `N[C@@H](CSc1ccc([N+](=O)[O-])cc1[N+](=O)[O-])C(=O)O`, the mutagenic call (Test System: AMES SALMONELLA TYPHIMURIUM, Strain/Indicator: TA100(NR), Metabolic Activation: NONE, Method: PREINCUBATION) was “active; positive”; the mutagenic call (Test System: AMES SALMONELLA TYPHIMURIUM, Strain/Indicator: TA100/GSH-, Metabolic Activation: NONE, Method: PREINCUBATION) was “active; positive”; the mutagenic call under setting [1] is “active; positive”.

For the compound `CN(C)CCC(c1ccccc1)c1ccccn1` (centres undefined), the mutagenic call (Test System: AMES SALMONELLA TYPHIMURIUM, Strain/Indicator: TA98, Metabolic Activation: HAMSTER, LIVER, S-9, AROCLOR 1254 (10%), Method: PREINCUBATION) was “inactive; negative”; the mutagenic call under setting [2] was “inactive; negative”; the mutagenic call (Test System: AMES SALMONELLA TYPHIMURIUM, Strain/Indicator: TA98, Metabolic Activation: RAT, LIVER, S-9, AROCLOR 1254 (10%), Method: PREINCUBATION) is “inactive; negative”; the mutagenic call (Test System: AMES SALMONELLA TYPHIMURIUM, Strain/Indicator: TA100, Metabolic Activation: HAMSTER, LIVER, S-9, AROCLOR 1254 (10%), Method: PREINCUBATION) is “inactive; negative”; the mutagenic call under setting [1] was “inactive; negative”; the mutagenic call (Test System: AMES SALMONELLA TYPHIMURIUM, Strain/Indicator: TA100, Metabolic Activation: RAT, LIVER, S-9, AROCLOR 1254 (10%), Method: PREINCUBATION) was “inactive; negative”. Besides, the mutagenic call was “inactive; negative” (Test System: AMES SALMONELLA TYPHIMURIUM, Strain/Indicator: TA1535, Metabolic Activation: HAMSTER, LIVER, S-9, AROCLOR 1254 (10%), Method: PREINCUBATION); “inactive; negative” under setting [3]; “inactive; negative” (Test System: AMES SALMONELLA TYPHIMURIUM, Strain/Indicator: TA1535, Metabolic Activation: RAT, LIVER, S-9, AROCLOR 1254 (10%), Method: PREINCUBATION); “inactive; negative” (Test System: AMES SALMONELLA TYPHIMURIUM, Strain/Indicator: TA1537, Metabolic Activation: HAMSTER, LIVER, S-9, AROCLOR 1254 (10%), Method: PREINCUBATION); “inactive; negative” under setting [4]; “inactive; negative” (Test System: AMES SALMONELLA TYPHIMURIUM, Strain/Indicator: TA1537, Metabolic Activation: RAT, LIVER, S-9, AROCLOR 1254 (10%), Method: PREINCUBATION).
